Test results as given in the NIST ThermoML archive (doi:10.1016/j.tca.2013.05.015).
Numbers after ± are expanded uncertainties.

Conditions: 101.33 kPa, Liquid; for speed of sound: Sing-around technique in a fixed-path interferometer; for mass density: Vibrating tube method

speed of sound (298.15 K) | mass density (298.15 K) | speed of sound (303.15 K) | mass density (303.15 K) | speed of sound (308.15 K) | mass density (308.15 K) | speed of sound (313.15 K) | mass density (313.15 K) | SMILES
1149 ± 10 m/s | 785.7 ± 2 kg/m3 | 1128 ± 10 m/s | 782 ± 2 kg/m3 | 1098 ± 10 m/s | 777.7 ± 2 kg/m3 | 1086 ± 10 m/s | 773.6 ± 2 kg/m3 | CCO [ethanol]
1141 ± 10 m/s | 894.4 ± 2 kg/m3 | 1118 ± 10 m/s | 888.5 ± 2 kg/m3 | 1096 ± 10 m/s | 882.7 ± 2 kg/m3 | 1073 ± 10 m/s | 876.3 ± 2 kg/m3 | CCOC(C)=O [ethyl acetate]
